Reference: BindingDB's records for doi:10.1021/jm0500875 (Pfizer, 2005)
Where a name gives a salt, the structure may show the parent alone.

Assays:
Assay in all cases: Enzyme Inhibition Assay
Neutrophil collagenase = Neutrophil collagenase (Homo sapiens, UniProt P22894)
Protocol: (§1) Inhibitors were assayed against purified hMMP-1, hMMP-2, hMMP-3, hMMP-8, hMMP-9, and hMMP-13 using an enzyme assay based on cleavage of the quenched fluorogenic peptide substrate. The increase in fluorescence due to cleavage of the substrate was measured with a fluorescence microplate reader. The Ki values were calculated by nonlinear regression analysis using the percent inhibition, and Km values of the substrates for each MMP.

Stromelysin-1 = Stromelysin-1 (Homo sapiens, UniProt P08254)
Protocol: as §1

Interstitial collagenase = target: T1, Interstitial collagenase (Homo sapiens, UniProt P03956)
T1 sequence (P03956 whole entry): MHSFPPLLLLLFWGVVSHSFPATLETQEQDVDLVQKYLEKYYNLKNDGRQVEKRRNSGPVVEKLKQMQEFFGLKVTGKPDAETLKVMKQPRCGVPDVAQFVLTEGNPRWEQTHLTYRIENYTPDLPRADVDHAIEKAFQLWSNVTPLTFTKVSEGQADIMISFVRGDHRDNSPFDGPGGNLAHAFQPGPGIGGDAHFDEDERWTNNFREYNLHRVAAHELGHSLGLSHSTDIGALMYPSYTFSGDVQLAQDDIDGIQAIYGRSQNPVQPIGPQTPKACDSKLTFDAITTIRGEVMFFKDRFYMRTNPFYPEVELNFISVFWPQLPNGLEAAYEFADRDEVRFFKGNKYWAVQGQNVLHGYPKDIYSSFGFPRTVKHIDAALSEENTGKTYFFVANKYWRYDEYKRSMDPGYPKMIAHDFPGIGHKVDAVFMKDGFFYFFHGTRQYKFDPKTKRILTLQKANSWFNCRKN
Protocol: as §1

[1] = target: 72 kDa type IV collagenase (Homo sapiens, UniProt P08253)
Protocol: as §1

[2] = target: Matrix metalloproteinase-9 (Homo sapiens, UniProt P14780)
Protocol: as §1

Collagenase 3 = Collagenase 3 (Homo sapiens, UniProt P45452)
Protocol: as §1

Stromelysin-1, sequence (P08254 whole entry): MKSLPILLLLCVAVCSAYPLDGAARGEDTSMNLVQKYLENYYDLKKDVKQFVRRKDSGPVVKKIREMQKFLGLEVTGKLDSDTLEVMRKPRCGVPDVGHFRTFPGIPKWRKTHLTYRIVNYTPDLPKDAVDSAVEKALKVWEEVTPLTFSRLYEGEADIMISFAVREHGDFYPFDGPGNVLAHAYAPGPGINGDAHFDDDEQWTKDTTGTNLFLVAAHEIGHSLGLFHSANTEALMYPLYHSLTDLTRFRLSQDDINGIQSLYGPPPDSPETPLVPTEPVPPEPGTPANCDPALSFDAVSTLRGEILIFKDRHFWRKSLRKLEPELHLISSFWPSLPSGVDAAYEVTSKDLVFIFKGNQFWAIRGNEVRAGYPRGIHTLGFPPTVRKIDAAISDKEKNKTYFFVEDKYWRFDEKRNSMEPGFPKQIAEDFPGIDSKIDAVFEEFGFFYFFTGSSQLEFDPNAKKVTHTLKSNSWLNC
72 kDa type IV collagenase, sequence (P08253 whole entry): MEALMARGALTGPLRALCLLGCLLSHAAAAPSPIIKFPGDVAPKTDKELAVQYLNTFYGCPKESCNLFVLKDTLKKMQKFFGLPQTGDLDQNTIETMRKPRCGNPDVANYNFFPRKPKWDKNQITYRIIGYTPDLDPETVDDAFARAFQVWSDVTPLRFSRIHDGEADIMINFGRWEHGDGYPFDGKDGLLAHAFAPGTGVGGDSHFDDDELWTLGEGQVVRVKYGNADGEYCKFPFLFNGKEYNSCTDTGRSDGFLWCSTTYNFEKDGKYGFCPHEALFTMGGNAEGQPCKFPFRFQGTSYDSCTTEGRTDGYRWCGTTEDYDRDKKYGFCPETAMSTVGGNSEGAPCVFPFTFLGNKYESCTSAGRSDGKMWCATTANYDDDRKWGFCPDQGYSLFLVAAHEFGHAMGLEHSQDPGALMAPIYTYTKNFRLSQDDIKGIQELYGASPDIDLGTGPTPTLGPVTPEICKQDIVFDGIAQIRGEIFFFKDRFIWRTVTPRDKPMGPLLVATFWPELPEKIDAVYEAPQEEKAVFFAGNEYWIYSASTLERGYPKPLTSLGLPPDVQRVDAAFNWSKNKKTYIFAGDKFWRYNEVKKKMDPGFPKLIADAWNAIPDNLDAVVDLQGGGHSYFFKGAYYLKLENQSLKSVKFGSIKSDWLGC
Neutrophil collagenase, sequence (P22894 whole entry): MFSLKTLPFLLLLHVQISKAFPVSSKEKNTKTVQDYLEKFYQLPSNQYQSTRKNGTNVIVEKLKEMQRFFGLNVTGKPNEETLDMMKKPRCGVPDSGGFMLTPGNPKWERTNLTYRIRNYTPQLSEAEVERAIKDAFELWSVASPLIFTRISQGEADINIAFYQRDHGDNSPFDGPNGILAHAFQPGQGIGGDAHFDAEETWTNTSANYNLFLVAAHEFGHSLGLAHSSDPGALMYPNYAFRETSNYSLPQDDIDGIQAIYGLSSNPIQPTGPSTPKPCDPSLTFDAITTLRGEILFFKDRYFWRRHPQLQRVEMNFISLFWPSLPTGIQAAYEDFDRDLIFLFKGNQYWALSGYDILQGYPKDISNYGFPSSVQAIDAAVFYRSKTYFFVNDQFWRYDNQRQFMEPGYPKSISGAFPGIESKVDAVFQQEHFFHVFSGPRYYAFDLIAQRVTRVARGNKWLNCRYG
Matrix metalloproteinase-9, sequence (P14780 whole entry): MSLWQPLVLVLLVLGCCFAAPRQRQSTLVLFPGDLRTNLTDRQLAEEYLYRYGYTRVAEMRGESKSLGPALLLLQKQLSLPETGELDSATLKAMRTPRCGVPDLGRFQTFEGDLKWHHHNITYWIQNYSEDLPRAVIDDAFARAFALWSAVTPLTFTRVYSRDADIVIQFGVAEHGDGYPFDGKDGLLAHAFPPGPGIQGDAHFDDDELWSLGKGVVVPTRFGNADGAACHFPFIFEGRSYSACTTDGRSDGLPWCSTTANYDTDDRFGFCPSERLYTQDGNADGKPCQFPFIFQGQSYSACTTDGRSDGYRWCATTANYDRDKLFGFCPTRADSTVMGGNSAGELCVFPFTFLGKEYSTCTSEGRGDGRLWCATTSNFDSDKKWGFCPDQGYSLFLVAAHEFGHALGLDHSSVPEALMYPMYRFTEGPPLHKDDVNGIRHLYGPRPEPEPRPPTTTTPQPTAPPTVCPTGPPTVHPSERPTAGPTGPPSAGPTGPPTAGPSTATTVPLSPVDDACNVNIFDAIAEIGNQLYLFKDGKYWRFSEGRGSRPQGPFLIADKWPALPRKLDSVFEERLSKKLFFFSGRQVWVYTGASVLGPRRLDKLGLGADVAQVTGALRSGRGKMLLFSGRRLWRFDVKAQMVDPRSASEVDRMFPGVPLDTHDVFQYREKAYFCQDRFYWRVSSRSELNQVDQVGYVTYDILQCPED

Row | Ki (Neutrophil collagenase) [nM] | Ki (Stromelysin-1) [nM] | Ki (Interstitial collagenase; pH 7.5, 25 °C) [nM] | Ki [1] [nM] | Ki [2] [nM] | Ki (Collagenase 3) [nM] | Ki (Interstitial collagenase) [nM] | SMILES
1 | 1.8 | 17.5 | 800 |  |  |  |  | O=C(NO)C1(CS(=O)(=O)c2ccc(Oc3ccc(Cl)cc3)cc2)CCOCC1
2 | 3 | 42.5 | 700 | 0.3 | 9 |  |  | O=C(NO)C1(CS(=O)(=O)c2ccc(Oc3ccccc3)cc2)CCN(CCc2ccccc2)CC1
3 |  | 35 | 417 | 0.25 | 4.5 | 0.55 |  | C#CCN1CCC(CS(=O)(=O)c2ccc(Oc3ccccc3)cc2)(C(=O)NO)CC1
4 |  |  | 770 | < 0.1 |  | < 0.1 |  | O=C(NO)C1(S(=O)(=O)c2ccc(Oc3ccccc3)cc2)CCN(CC2CC2)CC1 [1-(Cyclopropylmethyl)-N-hydroxy-4-[(4-phenoxyphenyl)sulfonyl]piperidine-4-carboxamide Hydrochloride]
5 |  |  |  |  |  | < 0.1 | 464 | CC(=O)N1CCC(C(=O)NO)(S(=O)(=O)c2ccc(Oc3ccccc3)cc2)CC1 [1-Acetyl-N-hydroxy-4-{[4-(phenoxyphenyl]sulfonyl}-piperidine-4-carboxamide]
6 | 3.5 | 23.5 |  | 0.1 | 2.5 | 0.2 | > 10000 | O=C(NO)C1(S(=O)(=O)c2ccc(Sc3ccccc3)cc2)CCN(C2CC2)CC1 [1-Cyclopropyl-N-hydroxy-4-{[4-(phenylthio)phenyl]-sulfonyl}piperidine-4-carboxamide Hydrochloride]
7 | 5 | 23 |  | 0.4 | 8 | 0.6 | 7300 | CC(=O)N1CCC(C(=O)NO)(S(=O)(=O)c2ccc(Sc3ccccc3)cc2)CC1 [1-acetyl-N-hydroxy-4-{[4-(phenylsulfanyl)benzene]sulfonyl}piperidine-4-carboxamide]
8 |  | 0.3 |  | 0.2 | 0.6 |  |  | O=C(NO)C1(S(=O)(=O)c2ccc(Oc3ccccc3)cc2)CCN(C2CC2)CC1 [1-cyclopropyl-N-hydroxy-4-[(4-phenoxybenzene)sulfonyl]piperidine-4-carboxamide hydrochloride]
9 |  |  |  | 0.8 |  | 0.8 | > 10000 | CCN1CCC(C(=O)NO)(S(=O)(=O)c2ccc(Sc3ccccc3)cc2)CC1 [1-ethyl-N-hydroxy-4-{[4-(phenylsulfanyl)benzene]sulfonyl}piperidine-4-carboxamide hydrochloride]
10 |  | 18.1 |  | 0.9 | 7 | 0.8 |  | C#CCN1CCC(CS(=O)(=O)c2ccc(Oc3ccc(C)c(C)c3)cc2)(C(=O)NO)CC1 [4-({[4-(3,4-Dimethylphenoxy)phenyl]sulfonyl}methyl)-N-hydroxy-1-prop-2-ynylpiperidine-4-carboxamide Hydrochloride]
11 |  | 18.1 |  | < 0.1 |  |  |  | O=C(NO)C1(S(=O)(=O)c2ccc(Oc3ccc(Cl)cc3)cc2)CCOCC1 [4-{[4-(4-chlorophenoxy)benzene]sulfonyl}-N-hydroxyoxane-4-carboxamide]
12 |  | 39.3 |  | 0.5 | 9.4 | 0.68 | > 10000 | CN1CCC(C(=O)NO)(S(=O)(=O)c2ccc(Sc3ccccc3)cc2)CC1 [N-Hydroxy-1-methyl-4-{[4-(phenylthio)phenyl]sulfonyl}-piperidine-4-carboxamide Hydrochloride]
13 |  | 12.6 | 274 | 0.13 | 0.4 | 0.22 |  | C#CCN1CCC(C(=O)NO)(S(=O)(=O)c2ccc(Oc3ccccc3)cc2)CC1 [N-Hydroxy-4-{[4-(phenoxyphenyl]sulfonyl}-1-(2-propynyl)4-piperidinecarboxamide, Monohydrochloride]
14 |  | 0.3 | 350 | 0.1 | 0.7 | 0.1 |  | COCCN1CCC(C(=O)NO)(S(=O)(=O)c2ccc(Oc3ccccc3)cc2)CC1 [N-hydroxy-1-(2-methoxyethyl)-4-[(4-phenoxybenzene)sulfonyl]piperidine-4-carboxamide hydrochloride]
15 | 4 | 20 |  | 0.3 | 3 | 0.5 | > 10000 | COCCN1CCC(C(=O)NO)(S(=O)(=O)c2ccc(Sc3ccccc3)cc2)CC1 [N-hydroxy-1-(2-methoxyethyl)-4-{[4-(phenylsulfanyl)benzene]sulfonyl}piperidine-4-carboxamide hydrochloride]
16 |  | 18.1 | 330 | 0.2 | 1.1 | 0.4 |  | COc1cccc(CN2CCC(CS(=O)(=O)c3ccc(Oc4ccccc4)cc3)(C(=O)NO)CC2)c1 [N-hydroxy-1-[(3-methoxyphenyl)methyl]-4-{[(4-phenoxybenzene)sulfonyl]methyl}piperidine-4-carboxamide hydrochloride]
17 |  |  |  | 0.3 | 1 | 0.5 | 800 | CS(=O)(=O)N1CCC(C(=O)NO)(S(=O)(=O)c2ccc(Oc3ccccc3)cc2)CC1 [N-hydroxy-1-methanesulfonyl-4-[(4-phenoxybenzene)sulfonyl]piperidine-4-carboxamide]
18 | 4 | 32 |  | 2 | 14.7 | 2.6 | > 10000 | CS(=O)(=O)N1CCC(C(=O)NO)(S(=O)(=O)c2ccc(Sc3ccccc3)cc2)CC1 [N-hydroxy-1-methanesulfonyl-4-{[4-(phenylsulfanyl)benzene]sulfonyl}piperidine-4-carboxamide]
19 |  |  | 464 | < 0.1 | 0.29 | 0.1 |  | CN1CCC(C(=O)NO)(S(=O)(=O)c2ccc(Oc3ccccc3)cc2)CC1 [N-hydroxy-1-methyl-4-[(4-phenoxybenzene)sulfonyl]piperidine-4-carboxamide hydrochloride]
20 |  |  |  | 2.6 |  | 5.1 | 6600 | O=C(CS(=O)(=O)c1ccc(Oc2ccccc2)cc1)NO [N-hydroxy-2-[(4-phenoxybenzene)sulfonyl]acetamide]
21 |  |  |  | 0.1 |  | 0.25 | 220 | CC(C)(C(=O)NO)S(=O)(=O)c1ccc(Oc2ccccc2)cc1 [N-hydroxy-2-methyl-2-[(4-phenoxybenzene)sulfonyl]propanamide]
22 | 3.5 | 59 | 1060 | 0.22 | 5 | 0.37 |  | O=C(NO)C1(S(=O)(=O)c2ccc(Oc3ccccc3)cc2)CCNCC1 [N-hydroxy-4-[(4-phenoxybenzene)sulfonyl]piperidine-4-carboxamide]
23 |  |  |  | 0.15 |  | 0.3 | > 10000 | C=CCN1CCC(C(=O)NO)(S(=O)(=O)c2ccc(Sc3ccccc3)cc2)CC1 [N-hydroxy-4-{[4-(phenylsulfanyl)benzene]sulfonyl}-1-(prop-2-en-1-yl)piperidine-4-carboxamide hydrochloride]
24 | 1.8 | 13 |  | 0.33 |  |  | 8660 | C#CCN1CCC(C(=O)NO)(S(=O)(=O)c2ccc(Sc3ccccc3)cc2)CC1 [N-hydroxy-4-{[4-(phenylsulfanyl)benzene]sulfonyl}-1-(prop-2-yn-1-yl)piperidine-4-carboxamide hydrochloride]
25 | 2.4 | 158 | 2400 | 2.8 | 30 | 8 |  | O=C(NO)C1(CS(=O)(=O)c2ccc(Oc3ccccc3)cc2)CCNCC1 [N-hydroxy-4-{[(4-phenoxybenzene)sulfonyl]methyl}piperidine-4-carboxamide hydrochloride]
26 |  |  | 475 | 0.2 |  | 0.2 |  | CC(C)(C)OC(=O)N1CCC(CS(=O)(=O)c2ccc(Oc3ccccc3)cc2)(C(=O)NO)CC1 [tert-Butyl 4-[(Hydroxyamino)carbonyl]-4-{[(4-phenoxyphenyl)sulfonyl]methyl}piperidine-1-carboxylate]
27 |  |  | 1140 | 0.2 |  | 0.3 |  | CC(C)(C)OC(=O)N1CCC(C(=O)NO)(S(=O)(=O)c2ccc(Oc3ccccc3)cc2)CC1 [tert-butyl 4-(hydroxycarbamoyl)-4-[(4-phenoxybenzene)sulfonyl]piperidine-1-carboxylate]
